Reference: US6949507B2, “Use of agents which bind G proteins for treating septic shock” (Dana-Farber Cancer Institute, Inc., priority 1997, dated 2005)
Entries after “also recorded” stand apart in the source; their conditions may differ.

Experiments:
[1] = test system: human PBMCs; assay: LPS-induced IL-6 production from human PBMCs (ELISA); format: cell-based; conditions: for inhibition of LPS-induced IL-6 production: LPS stimulated human PBMCs, 10 ng/ml LPS, IL-6 at 18 hours
Excerpt: (§1) Freshly isolated human peripheral blood mononuclear cells (PBMC) and monocytes were obtained from leukopaks (discarded leukocyte from platelet donations). The cells were fractionated on FICOLL-HYPAQUE™ gradients, washed, treated with tris-buffered NH4Cl to eliminate RBCs and washed to obtain PMBCs. Monocytes were obtained by depleting the PBMCs of T cells and NK cells by negative selection asking standard techniques. T cells and NK cells were removed by treatment with anti-CD3 and anti-CD2 monoclonal antibodies followed by goat anti-mouse Ig conjugated magnetic beads at a 10:1 bead:cell ratio. The monocyte preparations were at least 80-85% monocytes, as determined by anti-CD14 staining and forward and slide light scatter analysis using a FACScan (Becton-Dickenson, Elmhurst, Ill.). Less than 2% of the contaminating cells in the monocyte preparation were T cells and no NK cells could be detected. Monocytes were maintained in Ham's F-12 10% FCS, L-Glutamine and penicillin/streptomyocin at 37° C. in 5% CO2.
(§2) Freshly isolated human monocytes, human PBMC and U373-CD14 cells were incubated with 10 ng/ml LPS (E coli 0111:B4, Sigma, St. Louis, Mo.), 100 ng/ml PMA or were untreated in supplemented RPMI [10% FCS; 2 mM L-glutamine and penicillin/streptomycin] with or without various concentrations of mastoparan for 18 hours at 37° C. in 24 well tissue culture dishes. IL-6 and TNF-α levels were determined by ELISA (Endogen Inc., Boston, Mass.) of supernatants harvested at 4 hours (for TNF-α) and at 18 hours (for IL-6) after LPS stimulation.
Freshly isolated PBMCs were treated with LPS and/or peptides (mastoparan or the MAS-17 control peptide) and IL-6 levels were measured in the tissue culture supernatants of the cells (FIG. 2). PBMCs produced IL-6 in response to LPS, while neither mastoparan nor MAS-17 stimulated IL-6 production from the PBMCs.

[2] = test system: Erk kinases; assay: Erk 1 and 2 MAP kinase activation in human monocytes (immunoblotting); format: cell-based
Procedure: (§3) For detection of p38, phosphorylated p38 and phosphorylated Erk kinases in monocyte lysates, monocytes were subjected to various treatments and lysed in boiling reducing Laemmli sample buffer. The lysates were subjected to electrophoresis through a 10% SDS PAGE gel and were then transferred to nitrocellulose (NC). After washing twice with TBS-Twwen 20(0.1%) the NC was placed in a solution of Ponceau S dye to ensure equal loading and left in blocking buffer [1×TBS; […]; 5% milk] for 1 hour. After blocking and washing, the NC was incubated with anti-p38 N+C terminus (Santa Cruz Biotechnology Inc., Santa Cruz, Calif.) for 2-3 hours or with anti-phosphorylated p38 and Erk antibodies (New England Biolabs, Inc., Beverly, Mass.) for 18 hours. Membranes were washed three times in TBS-Tween 20 and were incubated for 30 minutes with horseradish peroxidase conjugated donkey-α-rabbit antibody in blocking buffer (Amersham Corp., Arlington Heights, Ill.). Membranes were washed an additional six times [3×TBS-Tween-20; 3×TBS], and were developed by exposure to ECL chemicals (Amersham corp., Arlington Heights, Ill.) and visualized by exposure to film.
The lack of substantial LPS-induced Erk kinase phosphorylation in freshly isolated monocytes is consistent with results obtained with other non-transformed human cells (Nick et al., J. Immunol., 156: 4867-4875, 1996). […]

[3] = test system: human monocytes; assay: Cell viability by trypan blue uptake; format: cell-based; conditions: after 36 hours of continuous mastoparan incubation
Procedure: (§4) In order to determine if the effect of mastoparan on LPS-induced cytokine production was due to a direct effect on monocytes, a highly enriched monocyte population was tested for the effect of LPS and mastoparan on cytokine production from these cells. Freshly isolated human monocytes were treated with mastoparan and LPS, after which IL-6 and TFN cytokine levels were measured in the tissue culture supernatants of the cells (FIG. 3A). […] When mastoparan was used in conjunction with LPS, cytokine production was diminished. […] Mastoparan had little effect on cytokine production from PMA stimulated cells (FIG. 3B), indicating the specificity of mastoparan action, and lack of mastoparan toxicity. Mastoparan had no effect on cell viability as measured by trypan blue uptake even after 36 hours of continuous mastoparan incubation.

[4] = test system: U373-CD14 cells; assay: LPS-induced IL-6 production from U373-CD14 transfectants; format: cell-based
Procedure: U373 cell CD14 transfectants (U373-CD14) were maintained in EMEM supplemented with 10% FCS, L-Glutamine and penicillin/streptomyocin at 37° C. in 5% CO2.
as §2
In addition, the effect of mastoparan on LSP-induced cytokine production from an LPS responsive, CD14 transfected cell line was determined. LPS treatment of U373-CD14 transfectants induced an LPS dose-dependent production of IL-6 (FIG. 4). […] IL-6 production induced by 10 ng/ml LPS was also ablated by treatment of the cells with mastoparan, while at 100 ng/ml of LPS, mastoparan reduced IL-6 levels by approximately one third. At high concentrations of LPS (1 μg/ml) the IL-6 responses of these cells were not inhibited by treatment with the anti-CD14 monoclonal antibody. […] At LPS concentrations of 1 μg/ml, mastoparan was ineffective at reducing cytokine responses from these cells. Thus, CD14-independent LPS signals were not inhibited by mastoparan.

[5] = test system: human monocytes; assay: LPS-induced IL-6 and TNF production from freshly isolated human monocytes (ELISA); format: cell-based
Excerpt: as §1, §2, §4

[6] = test system: LPS-induced lethal endotoxic shock; assay: LPS-induced lethal endotoxic shock in rats; format: in vivo, Wistar rats
Procedure: Wistar rats (200 g) were obtained from Charles River Laboratories. Rats were treated with 3 mg/kg mastoparan by intravenous injection in the tail vein, immediately followed by 15 mg/kg lead acetate and 5 μg/kg LPS 0111:B4 intravenously. Mortality was assessed up to 96 hours following LPS treatment. Mortality frequency was compared by Fisher exact test and statistical analysis was performed using Yates corrected Chi square test.
To determine the effect of mastoparan in vivo, the effect of mastoparan on LPS-induced lethal endotoxic shock in rats was assessed.

[7] = test system: p38 MAP kinase; assay: LPS-induced p38 MAP kinase phosphorylation / nuclear translocation (immunoblotting); format: cell-based, human
Procedure: as §3
For detection of p38 in nuclear extracts, cells after a variety of treatments were subject to lysis and nuclear extraction as described in Lerder et al., J. Immunol. 152:77-86 (1994). The nuclear extracts were subjected to protein quantitation by Micro BCA assay (Pierce, Rockford, Ill.) using a BSA standard. The details of the blotting procedure were the same as above except that […] of extract was used.
Because mastoparan had profound effects on cytokine production and p38 MAP kinase is involved,in LPS induced-signaling, the effect of mastoparan on MAP kinase activation was evaluated. For full activation, p38 MAP kinase requires phosphorylation on both threonine and tyrosine residues (Raingeaud et al., J. Biol. Chem., 270: 7420-7426, 1995). Detection of dual-phosphorylated p38 MAP kinase by monoclonal antibodies specific for the dual-phosphorylated form of p38 was used as a measure of p38 activation. […]

[8] = test system: human monocytes; assay: PMA-induced cytokine production from human monocytes; format: cell-based; conditions: 100 ng/ml PMA
Procedure: as §2, §4

[9] = LPS-stimulated, various concentrations of mastoparan (FIG. 3A)
[10] = 3 mg/kg mastoparan i.v. + lead acetate + 5 μg/kg LPS, dead/total

Substance: mastoparan
- inhibition of LPS-induced IL-6 production [1]: potent inhibitor
- inhibition of LPS-induced IL-6 production ([1]; listed as mastoparan): inhibits; also recorded: dose-dependent
- LPS-induced IL-6 production ([1]; human PBMCs, 13.3 μM mastoparan): totally ablated
- IL-6 production stimulated by peptide alone ([1]; human PBMCs, peptide without LPS): neither
- Erk kinase activation induced by LPS [2]: specific inhibition; also recorded: completely inhibited
- Erk kinase activation induced by PMA [2]: minimal effects
- cell viability as measured by trypan blue uptake [3]: no effect
- IL-6 production induced by LPS ([4]; U373-CD14 cells, 10 ng/ml LPS): ablated
- reduction of IL-6 levels ([4]; U373-CD14 cells, 100 ng/ml LPS): approximately one third
- IL-6 / cytokine responses at high LPS (CD14-independent) ([4]; U373-CD14 cells, 1 μg/ml LPS): ineffective
- CD14-dependent LPS induced signal transduction ([4]; U373-CD14 transfected cells (FIG. 4)): inhibits
- inhibition of IL-6 production in human monocytes [5, 9]: dose-dependent inhibition
- inhibition of TNF-α production in human monocytes [5, 9]: dose-dependent inhibition
- LPS-induced cytokine production ([5]; human monocytes, 13.34 μM mastoparan): totally ablated
- IL-6 production induced by mastoparan alone ([5]; human monocytes, without LPS): induced neither
- TNF production induced by mastoparan alone ([5]; human monocytes, without LPS): induced neither
- reduction of IL-6 production in monocytes stimulated with LPS ([5]; mastoparan as low as 1.67 μM): dramatic reductions
- reduction of TNF production in monocytes stimulated with LPS ([5]; mastoparan as low as 1.67 μM): dramatic reductions
- LPS-induced cytokine production from human monocytes ([5]; mastoparan in conjunction with LPS, concentration not given): inhibition; also recorded: diminished
- Mortality Total (%) ([6]; 3 mg/kg mastoparan i.v. + lead acetate + 5 μg/kg LPS): 44.4%
- Mortality 14 hours [6, 10]: 7/18
- Mortality 24 hours [6, 10]: 8/18
- protection from LPS induced mortality ([6]; 3 mg/kg mastoparan i.v., 15 mg/kg lead acetate and 5 μg/kg LPS i.v., p<0.05 at 14 and 24 hours): significantly protect
- mortality at 96 hours relative to the 24 hour point ([6]; experiment continued for 96 hours): unchanged
- toxic effects when used alone in the model system ([6]; mastoparan alone, data not shown): did not have any toxic effects
- LPS-induced p38 MAP kinase activity ([7]; FIG. 5B): reduces
- LPS-induced phosphorylation of p38 MAP kinase ([7]; monocytes and PBMC): inhibition; also recorded: reduced
- LPS-induced nuclear translocation of p38 ([7]; nuclear extracts): inhibited
- cytokine production from PMA stimulated cells [8]: little effect
